According to paper PMC8598068, “Flagellin lysine methyltransferase FliB catalyzes a [4Fe-4S] mediated methyl transfer reaction” (PLoS Pathogens, 2021):

Legend:
ftFliB (FleBt-FliB) [1] = molecular target: T1, ftFliB (FleBt-FliB) (Salmonella enterica, UniProt Q56106); test: biochemical
ftFliB (FleBt-FliB) [2] = molecular target: T1, ftFliB (FleBt-FliB); test: UV-vis, EPR, […] Mössbauer, iron and sulfur content; assay type: binding; set-up: N-terminal His6 and Yersinia enterocolitica FleB residues 54-332 (FleBt) solubility tag kept, fused to FliB; E. coli BL21(DE3); ~76 kDa; about 14-mer; conditions: anaerobically reconstituted protein; CX4CX3CC motif
[3] = molecular target: the molecule itself; test: SEC-MALS; TSK-GEL BioAssist G4SWXL column, buffer A, 0.5 mL/min; MALS with RI and UV 280 nm detectors

C[S+](CC[C@H](N)C(=O)O)C[C@H]1O[C@@H](n2cnc3c(N)ncnc32)[C@H](O)[C@@H]1O (stereo partly drawn) [SAM, S-adenosylmethionine]
Kd (ftFliB (FleBt-FliB) [1]): 10.5 ± 3.41 µM

[S]12[Fe]3[S]4[Fe]1[S]1[Fe]2[S]3[Fe]41 [[4Fe-4S] cluster]
UV-vis, EPR, 57Fe Mössbauer, iron and sulfur content (ftFliB (FleBt-FliB) [2]): indicating the presence of one [4Fe-4S] cluster in FliB

B1: FleBt-FliB fusion protein (flagellin lysine methyltransferase FliB fused to the C-terminus of truncated FleB) (enzyme)
chain: MKEITVTEPAFVTRFSCSGSACRDHCCKGWKITLDKTTVKKYLASKDTTIRTIAQDHIILLKKNNSHWGEIKLPSALGNCPYLDEDRLCRVQKTLGAKALSHTCSSFPRAHHTYKNEVRNSLSLACPEVTSRILNDPDAMALSEKTIIQQTFNTAPLFPAQQKLLNLFCLSLINHANSSTEAALYALIKFVMYAQKFAKIDDAALGELEQVYAALLEQLQTGVLAQELMNIAPDSKVKTSLVLQMQDYFRSLPLNRGSVILDHYIQCLLRVLTAEEGVSMEQKVSDIESSLARCLQANEQQKNWAFRNLILYKIWENNFPNQPNVDPLRALYIIVAEYAFIKLLTAASVHERGRIEWDDVTNIVYSFHSRSQHNSEVAKNFHRHIETVRTGDDLSMIHLLT
notes: also called ftFliB; source: E. coli BL21 (DE3), purified (HisTrap HP, SEC); copies: 14
stoichiometry N [3]: ~14 subunits per oligomer
